# Results published in article PMC12670405, “Second-Generation AURKA-Targeting PROTACs: Structural Optimization toward in Vivo Degradation in Neuroblastoma” (Journal of Medicinal Chemistry, 2025).
# Like-named read-outs stand apart in the source and are kept apart here.
# Legend:
# AURKB = target: T1, AURKB (Homo sapiens, UniProt Q96GD4); test: AURKB binding assay (KINOMEscan / KdELECT, Eurofins Discovery)
# T1 construct: purchased Eurofins Discovery
# Description: (§1) AURKA, AURKB and CRBN binding assays were performed by Eurofins Discovery using the KdELECT Kinase Assay Panel (AURKA and AURKB), or the E3scan Ligand Binding Assay Technology (CRBN). More information can be found on the Eurofins Discovery Web site.
# (§2) Graphs were generated using GraphPad Prism Software (version 10.1.2) or RStudio (R-4.3.2). All dose–response curves were computed on GraphPad Prism using the Variable Slope (four parameters) equation. Absolute half-maximal degradation (DC50), growth inhibitory (GI50) and enzymatic inhibitory (IC50) concentrations, as well as inhibition constants (Ki) were derived from dose–response curves via interpolation. Statistical tests were performed on GraphPad Prism and detailed in the figure legends. Unless otherwise stated, “n” in the figure legends indicates the number of independent experiments conducted at different times.
# [1] = Metabolic stability in mouse hepatocytes (MH); format: in vitro ADME, CD-1 mouse; conditions: CD-1
# Description: Plasma and metabolic stability tests were performed by Eurofins Discovery. For the plasma stability assay, test compounds were incubated in CD-1 mouse plasma for 0, 0.5, 1, 1.5, and 2 h at 37 °C at a concentration of 1 μM. For the metabolic stability assay, test compounds were incubated at 37 °C in either (1) CD-1 mouse liver microsomes (MLM) (0.1 mg/mL) at a concentration of 0.1 μM for 0, 15, 30, 45, and 60 min or (2) CD-1 mouse hepatocytes (MH) (0.7 million viable cells/mL) at a concentration of 1 μM for 0, 0.5, 1, 1.5, and 2 h. At the respective time points, acetonitrile was added to the incubation mixture followed by centrifugation. Samples were analyzed by HPLC-MS/MS and peak areas were recorded for each analyte. Compound stability, expressed as the percentage of parent compound remaining, was calculated by comparing the peak area of the compound at each time point relative to that of the 0h time point. Percentage compound remaining is plotted as a function of time as a logarithmic curve. Half-life (t 1/2) is estimated from the slope of the initial linear range of the curve, assuming first-order kinetics. […] Both plasma and metabolic assay experiments were performed once with 2 replicate samples each.
# Plasma stability assay = format: in vitro ADME, CD-1 mouse; conditions: for half-life at 1 μM: CD-1 mouse plasma, 37 °C, read-out: plasma t1/2
# How it was run: (§3)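 Compounds incubated at 37 °C: CD-1 mouse plasma, 1 μM, 0–2 h; CD-1 MLM 0.1 mg/mL, 0.1 μM, 0–60 min; CD-1 hepatocytes 0.7 million cells/mL, 1 μM, 0–2 h. Parent remaining by HPLC-MS/MS relative to 0 h; t1/2 from initial log-linear slope assuming first-order kinetics; one run, duplicate samples.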
# NGP = test: IncuCyte live-cell imaging, antiproliferative effect; format: cell-based; conditions: Homo sapiens, 72 h
# How it was run: (§4)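 Cells seeded in 384-well plates (neuroblastoma 1200–5000, HEK293T 600 cells/well), adhered overnight, then compound-treated in duplicate or triplicate; confluency tracked by IncuCyte live-cell imaging. Normalized confluence averaged from 3 experiments; absolute GI50 interpolated from four-parameter variable-slope curves.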
# CRBN = target: T2, CRBN (Homo sapiens, UniProt Q96SW2); test: CRBN binding assay (E3scan, Eurofins Discovery)
# T2 construct: purchased Eurofins Discovery
# T2 sequence (Q96SW2 whole entry): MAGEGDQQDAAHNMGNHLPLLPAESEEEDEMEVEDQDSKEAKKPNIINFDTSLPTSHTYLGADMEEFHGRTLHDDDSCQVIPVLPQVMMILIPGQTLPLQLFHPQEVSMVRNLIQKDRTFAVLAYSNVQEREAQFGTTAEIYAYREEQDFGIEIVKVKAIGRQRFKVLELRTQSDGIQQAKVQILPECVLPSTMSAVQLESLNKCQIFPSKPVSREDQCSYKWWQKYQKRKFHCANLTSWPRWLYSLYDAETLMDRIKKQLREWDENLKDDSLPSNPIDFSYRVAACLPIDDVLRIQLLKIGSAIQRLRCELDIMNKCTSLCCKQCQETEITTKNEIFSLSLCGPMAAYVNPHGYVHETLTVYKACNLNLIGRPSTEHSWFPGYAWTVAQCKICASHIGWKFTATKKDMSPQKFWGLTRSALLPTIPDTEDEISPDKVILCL
# Description: as §1, §2
# [2] = Metabolic stability in mouse liver microsomes (MLM); format: in vitro ADME, CD-1 mouse; conditions: CD-1
# How it was run: as §3
# AURKA = target: T3, AURKA (Homo sapiens, UniProt O14965); test: AURKA binding assay (KINOMEscan / KdELECT, Eurofins Discovery); parameters: purchased Eurofins Discovery; conditions: for binding selectivity for AURKA over AURKB: Ki AURKB vs Ki AURKA
# T3 sequence (O14965 1-403): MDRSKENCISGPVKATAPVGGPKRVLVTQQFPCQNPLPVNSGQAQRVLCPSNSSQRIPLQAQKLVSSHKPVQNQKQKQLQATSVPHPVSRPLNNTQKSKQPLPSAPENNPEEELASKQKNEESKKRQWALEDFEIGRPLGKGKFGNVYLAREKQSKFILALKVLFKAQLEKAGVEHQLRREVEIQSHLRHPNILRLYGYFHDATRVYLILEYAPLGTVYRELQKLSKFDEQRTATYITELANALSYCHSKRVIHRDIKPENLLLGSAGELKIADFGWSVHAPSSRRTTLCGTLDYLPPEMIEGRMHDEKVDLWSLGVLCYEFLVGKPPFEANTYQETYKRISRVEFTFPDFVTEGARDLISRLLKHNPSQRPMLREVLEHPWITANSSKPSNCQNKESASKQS
# Description: as §1, §2
# SK-N-BE(2)-C = test: IncuCyte live-cell imaging, antiproliferative effect; format: cell-based, human; conditions: 72 h; for GI50: Homo sapiens, SK-N-BE(2)-C, read-out: Cell GI50 72h; for growth-inhibitory activity upon cotreatment with tariquidar (in words): NGP, SJNB-8 and SK-N-BE(2)-C, 1 μM tariquidar
# From the text: Human neuroblastoma cell lines NGP, IMR-32, SJNB-8, SK-N-BE(2)-C, SJNB-1, SK-N-SH and SK-N-AS, as well as benign immortalized cell lines RPE and HEK293T were either bought commercially or obtained through research laboratories. […] Screening for mycoplasma contamination occurred routinely on the cells. Human neuroblastoma cell lines SH-SY5Y_shABCB1 & SH-SY5Y_shNTC were generated by transduction with pLKO.1-ABCB1_TRCN0000059683 shRNA (Sigma MISSION SHCLND) or pLKO.1-puro NT shRNA (Sigma MISSION SHC002) vectors respectively (Supplementary Table S6), packaged using Lenti-X293T (Clontech). Transduced cells were selected with 2 μg/mL puromycin. These cells were cultured in DMEM 4.5 g/L D-Glucose, L-Glutamine and 110 mg/L Sodium Pyruvate (Gibco, #11995065) supplemented with 10% fetal bovine serum, 1× Antibiotic-Antimycotic solution (Sigma-Aldrich, #A5955) and 1× MEM nonessential amino acids (Sigma-Aldrich, #M7145). Incubation of all cells occurred at 37 °C and 5% CO2.
# Neuroblastoma cells were seeded in 384-well plates at different densities ranging from 1200 to 5000 cells/well and allowed to adhere overnight. RPE and HEK293T were seeded at 200 and 600 cells/well, respectively. Compound treatment was performed using the D300e Digital Dispenser (Tecan) in duplicate or triplicate and cell confluency was monitored over time using the IncuCyte Live-cell imaging system (Sartorius). […] Mean normalized confluences were calculated from 3 individual experiments.
# All dose–response curves were computed on GraphPad Prism using the Variable Slope (four parameters) equation. Absolute half-maximal degradation (DC50), growth inhibitory (GI50) and enzymatic inhibitory (IC50) concentrations, as well as inhibition constants (Ki) were derived from dose–response curves via interpolation. Statistical tests were performed on GraphPad Prism and detailed in the figure legends. Unless otherwise stated, “n” in the figure legends indicates the number of independent experiments conducted at different times.
# SJNB-8 = test: as above; format: cell-based; conditions: Homo sapiens, 72 h, read-out: Cell GI50 72h, SJNB-8
# How it was run: as §4
# SK-N-SH = test: as above; format: cell-based; conditions: Homo sapiens, 72 h, read-out: Cell GI50 72h
# How it was run: as §4
# SK-N-AS = test: as above; format: cell-based; conditions: Homo sapiens, 72 h, read-out: Cell GI50 72h
# How it was run: as §4
# T1 sequence (Q96GD4 whole entry): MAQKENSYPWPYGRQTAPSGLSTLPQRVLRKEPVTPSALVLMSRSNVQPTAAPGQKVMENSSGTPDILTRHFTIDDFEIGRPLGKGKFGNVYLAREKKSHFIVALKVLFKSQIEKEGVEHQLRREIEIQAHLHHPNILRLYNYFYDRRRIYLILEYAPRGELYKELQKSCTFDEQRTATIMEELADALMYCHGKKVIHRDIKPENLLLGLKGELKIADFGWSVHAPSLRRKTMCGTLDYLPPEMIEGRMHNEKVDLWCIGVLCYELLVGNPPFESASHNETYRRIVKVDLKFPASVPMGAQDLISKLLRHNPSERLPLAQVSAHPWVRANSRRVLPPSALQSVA
SMILES,Ki (AURKB),hepatocyte CLint at 1 μM [1],half-life at 1 μM (Plasma stability assay),plasma t1/2 (Plasma stability assay),"GI50 (NGP; read-out: GI50 72h, 72h)",GI50 (NGP; read-out: pGI50 (converted)),Ki (CRBN),microsomal CLint at 0.1 μM [2],Ki (AURKA),binding selectivity for AURKA over AURKB (AURKA),GI50 (SK-N-BE(2)-C),growth-inhibitory activity upon cotreatment with tariquidar (in words) (SK-N-BE(2)-C),GI50 (SJNB-8),GI50 (SK-N-SH),GI50 (SK-N-AS),"GI50 (NGP; read-out: Cell GI50 72h, NGP (Figure 4B))"
O=C1CCN(c2ccc(N3CCN(CC4CCN(C(=O)[C@]5(Cc6cccc(Nc7nccs7)n6)CC[C@@H](Oc6cccc(Cl)c6F)CC5)CC4)CC3)nc2)C(=O)N1 [PROTAC 24],2390 nM,< 4.1 µL/min/1e6 cells,> 2 h,> 2 h,28 nM,27.5 nM,4300 nM,565 µL/min/mg,1 nM,more than 2000 fold,–,–,–,–,–,–
O=C1CCN(c2ccc(N3CCN(CC4CN(C(=O)[C@]5(Cc6cccc(Nc7nccs7)n6)CC[C@@H](Oc6cccc(Cl)c6F)CC5)C4)CC3)nc2)C(=O)N1 [PROTAC 23],–,< 4.1 µL/min/1e6 cells,> 2 h,> 2 h,24 nM,23.4 nM,–,666 µL/min/mg,–,–,–,–,–,–,–,–
Cc1cc(Nc2ccc(F)c(CC3(C(=O)N4CCC(CN5CCN(c6ccc(N7CCC(=O)NC7=O)cn6)CC5)CC4)CCN(Cc4cccc(Cl)c4F)CC3)n2)n[nH]1 [SK4454],7640 nM,< 4.1 µL/min/1e6 cells,> 2 h,> 2 h,35 nM,34.7 nM,4060 nM,437 µL/min/mg,1 nM,more than 2000 fold,1110 nM,comparable to AURKA inhibitor TAS-119,< 100 nM,430 nM,994 nM,–
"O=C1CCC(N2C(=O)c3cccc(OCCOCCOCCOCCNC(=O)[C@]4(Cc5cccc(Nc6nccs6)n5)CC[C@@H](Oc5cccc(Cl)c5F)CC4)c3C2=O)C(=O)N1 (stereo partly drawn) [SK2188, reference compound]",5610 nM,–,1.12 h,–,40 nM,39.8 nM,273 nM,1390 µL/min/mg,2 nM,more than 2000 fold,3730 nM,–,173 nM,1580 nM,3180 nM,19 nM
O=C1CCC(Nc2ccc(N3CCN(C4CN(C(=O)[C@]5(Cc6cccc(Nc7nccs7)n6)CC[C@@H](Oc6cccc(Cl)c6F)CC5)C4)CC3)c(F)c2)C(=O)N1 (stereo partly drawn) [PROTAC 18],–,< 4.1 µL/min/1e6 cells,> 2 h,> 2 h,17 nM,17 nM,1210 nM,369 µL/min/mg,–,–,–,–,–,–,–,–
Cc1cc(Nc2ccc(F)c(CC3(C(=O)N4CC(N5CCN(c6ccc(NC7CCC(=O)NC7=O)cc6F)CC5)C4)CCN(Cc4cccc(Cl)c4F)CC3)n2)n[nH]1 (stereo not drawn) [PROTAC 29],–,< 4.1 µL/min/1e6 cells,> 2 h,> 2 h,36 nM,36.3 nM,–,438 µL/min/mg,–,–,–,–,–,–,–,–
Cc1cc(Nc2ccc(F)c(CC3(C(=O)N4CCC(F)(CN5CCN(c6ccc(N7CCC(=O)NC7=O)cn6)CC5)CC4)CCN(Cc4cccc(Cl)c4F)CC3)n2)n[nH]1 [SK5527],> 10000 nM,4.4 µL/min/1e6 cells,> 2 h,> 2 h,42 nM,41.7 nM,1130 nM,582 µL/min/mg,2 nM,more than 2000 fold,477 nM,comparable to AURKA inhibitor TAS-119,< 100 nM,244 nM,654 nM,–
